Results as given in PubChem BioAssay AID1996.
≈ marks a conversion by molar mass, not a printed value.

settings: buffer; pH 7.4; 200.0 µM

Row | Compound | solubility kinetic [µg/mL]
1 | COc1ccccc1NC(=O)CC1SC(=N)N(c2ccccc2)C1=O (centres undefined) | 5.3 (≈ 14.9 µM)
2 | CCN(CC)C(=O)C1CCCN(Cc2nc(-c3cnccn3)no2)C1 (centres undefined) | 40.4 (≈ 117 µM)
3 | O=c1ncn(-c2cccc(Cl)c2)c2ccccc12 | 38 (≈ 148 µM)
4 | O=C(COc1ccc(Cl)cc1)NCc1ccccc1 | 25.6 (≈ 92.8 µM)
5 | Cc1cc(Br)c(NC(=O)COC(=O)c2ccc[n+]([O-])c2)c(Br)c1 | > 66.6
6 | O=[N+]([O-])c1cccc(-c2cc3ccccc3[nH]2)c1 | < 0.3
7 | CCOc1ccccc1NC(=O)CN1CCC(NC(=O)Nc2ccccc2)CC1 | 18.5 (≈ 46.7 µM)
8 | COc1ccc(OCC(=O)NC2CCCCCCC2)cc1 | 37.7 (≈ 129 µM)
9 | CCOc1ccc(CCNC(=O)Nc2ccccc2)cc1OCC | 5.9 (≈ 18 µM)
10 | O=c1[nH]cnc2sc3c(c12)CN(Cc1ccccc1)CC3 | 21.3 (≈ 71.6 µM)
11 | OCc1nc2ccccc2n1Cc1ccc(Cl)cc1 | 28.4 (≈ 104 µM)
12 | COc1ccc(C2=C(c3ccc([N+](=O)[O-])cc3)C(=O)OC2)cc1 | 3.4 (≈ 10.9 µM)
13 | CCN(CC)Cc1c(O)ccc2c(=O)c(Oc3ccccc3OC)c(C)oc12 | > 57.5
14 | CCCCc1nc2cc(C(=O)N(C)C3CCOCC3)ccc2o1 | > 47.5
15 | CC1CCCCN1C(=O)CSc1nc(-c2ccccc2)cn1N (centres undefined) | > 49.6
16 | COc1ccc(C2(C(=O)NCCc3ccccc3)CCCC2)cc1 | 31.1 (≈ 96.2 µM)
17 | CCOC(=O)c1c(N)sc(C(=O)N(CC)CC)c1C | > 42.7
18 | Cc1ccc(NC(=O)c2ccc(CSc3ccccn3)cc2)c(O)c1 | 1 (≈ 2.85 µM)
19 | COc1ccc(C(=O)O)cc1NCc1ccc(C)s1 | > 41.6
20 | Cc1ccc(S(=O)(=O)Nc2ccc3[nH]ccc3c2)cc1 | > 43

Row | Compound | solubility kinetic [µg/mL]
21 | COc1cc2ccccc2cc1C(=O)NC1CCCCC1 | 25.3 (≈ 89.3 µM)
22 | Cc1cc(S(=O)(=O)Cc2noc(-c3c(C)noc3C)n2)c(C)cc1Cl | < 0.3
23 | Cc1ccc(S(=O)(=O)N2CCOCC2)cc1C(=O)OCC(=O)N1CCCCC1 | > 61.6
24 | COc1ccc(OCCC(=O)OCC(=O)c2ccc[nH]2)cc1 | > 45.5
25 | O=C(Cc1ccc(Br)cc1)Nc1nc2ccccc2[nH]1 | 2.4 (≈ 7.27 µM)
26 | CC(C)(CC(=O)O)CC(=O)N1CCN(c2nc3cc(Cl)ccc3s2)CC1 | > 59.4
27 | Br.Nc1nc2c(s1)CCc1ccccc1-2 | 40.3
28 | O=C(COc1ccc(F)cc1)Nc1nc2c(s1)CCCC2 | 2.6 (≈ 8.49 µM)
29 | O=[N+]([O-])c1ccc(CN2CCN(c3ncccn3)CC2)cc1 | 10.1 (≈ 33.7 µM)
30 | COc1ccc(C(=O)NCCSc2ccccc2C)cc1 | 23.7 (≈ 78.6 µM)
31 | CC(OC(=O)CSc1ccc(F)cc1)C(=O)NC1(C#N)CCCCC1 (centres undefined) | 42.2 (≈ 116 µM)
32 | O=c1[nH]c2ccc(NC(=S)NCc3ccccc3)cc2[nH]1 | 7.6 (≈ 25.5 µM)
33 | CC(=O)c1ccc(OC(C)C(=O)Nc2cccc(S(=O)(=O)NCc3ccco3)c2)cc1 (centres undefined) | > 66.4
34 | O=C(Nc1ccc(OC(F)(F)F)cc1)c1ccc2nc[nH]c2c1 | 14.9 (≈ 46.4 µM)
35 | COc1ccccc1C(=O)COC(=O)c1ccc(N(C)C)cc1 | 1.1 (≈ 3.51 µM)
36 | COC(=O)c1cc(S(=O)(=O)NCCCc2ccco2)c[nH]1 | > 46.9
37 | COc1ccccc1Nc1ccc(C(=O)O)cc1[N+](=O)[O-] | > 43.2
38 | CC(C)(C)c1ccc(C(=O)NCC(=O)N2CCNC(=O)C2)cc1 | > 47.6
39 | Nc1ncc([N+](=O)[O-])cc1S(=O)(=O)c1ccccc1 | 3.8 (≈ 13.6 µM)
40 | CC1Cc2ccccc2N1C(=O)c1ccc2c(c1)OCO2 (centres undefined) | > 42.2

Row | Compound | solubility kinetic [µg/mL]
41 | O=C(Nc1ccccc1Br)c1c(F)cccc1Cl | 13.5 (≈ 41.1 µM)
42 | CC(=O)c1cn(CC(=O)NCCc2c[nH]c3ccccc23)c2ccccc12 | 2.6 (≈ 7.23 µM)
43 | COc1cccc(C=O)c1OCCN1C(=O)c2ccccc2C1=O | 42.6 (≈ 131 µM)
44 | O=[N+]([O-])c1ccc(-c2csc(N3CCCCCC3)n2)cc1 | 0.6 (≈ 1.98 µM)
45 | Cl.Fc1c(F)c(F)c(N2CCNCC2)c(F)c1F | > 43.3
46 | O=C(CCc1ccccc1)Oc1ccccc1[N+](=O)[O-] | 5.2 (≈ 19.2 µM)
47 | COc1cccc(C(c2c(N)n(C)c(=O)n(C)c2=O)C(C)[N+](=O)[O-])c1 (centres undefined) | > 52.3
48 | Cc1csc(NC(=O)CSc2nccn2C)n1 | > 40.3
49 | CCn1c(=O)c2sccc2n(Cc2ccc(C)cc2)c1=O | 0.4 (≈ 1.33 µM)
50 | O=S(=O)(c1ccc2c(c1)CCCN2)N1CCCC1 | > 40
51 | O=S(=O)(O)c1ccc(SCc2ccccc2)nc1 | > 42.2
52 | N#Cc1ccc(CSc2ncccn2)cc1 | > 34.1
53 | COCC(=O)N(Cc1cc2ccc(C)cc2[nH]c1=O)c1ccc(C)cc1C | 4.9 (≈ 13.4 µM)
54 | Cc1ccc(NCc2ccc(O)c3ncccc23)cc1C | 3.6 (≈ 12.9 µM)
55 | O=C(Nc1ccccc1)NC1(C(=O)N2CCC(O)CC2)CCCCC1 | > 51.8
56 | COc1ccc(CN(C)C(C)C(=O)Nc2cccc3ccccc23)cc1 (centres undefined) | 7.8 (≈ 22.4 µM)
57 | CN(C)c1nc(C(=O)O)nc(N2CCOCC2)n1 | 36.2 (≈ 143 µM)
58 | CCCCN(C1CCS(=O)(=O)C1)S(=O)(=O)c1ccc(C(C)C)cc1 (centres undefined) | 1.9 (≈ 5.09 µM)
59 | O=C(NC1CCCCC1)c1c2c(nc3ccccc13)CCC2 | 25.9 (≈ 88 µM)
